# Experimental data reported in ChEMBL document CHEMBL3507680, “University of Dundee, Gates Library screen for HepG2 cell viability”.
# Test: Human HepG2 cell viability assay in 384 well format
# Type: toxicity, cell-based
# Design: dose 125 nL, time 70.5 hour; concentration not given beside the values
# Conditions: HepG2 cells, read-out: Inhibition
row,SMILES,cytotoxicity at 70.5 h [%]
1,CC(NC(=O)COC1CCCC1)c1nc(-c2ccccc2)c[nH]1 (stereo not given),-1.37
2,CNC(=O)C(NC(=O)c1ccn(C)c(=O)c1)c1ccccc1 (stereo not given),33.4
3,NC(=O)C1CCCN1C1CCN(C(=O)c2ccc3c(c2)OCO3)CC1 (stereo not given),-1.65
4,O=C(c1cccc2c1OCO2)N1CCC(N2CCCC2)CC1,-1.7
5,CCOCC(=O)NS(=O)(=O)c1ccc(F)cc1C(F)(F)F,-4.87
6,COCCS(=O)(=O)NC(C)c1cccc(C)c1C (stereo not given),28.4
7,CC(Sc1n[nH]c(-c2ccc3c(c2)CCC3)n1)C(N)=O (stereo not given),0.8
8,CS(=O)(=O)CCCSc1n[nH]c(-c2ccc3c(c2)CCC3)n1,-1.26
9,CN1C(=O)CCc2cc(NC(=O)C3CC(=O)N(CC4CC4)C3)ccc21 (stereo not given),2.59
10,Brc1ccc(NCc2ccc(Cn3ccnc3)cc2)nc1,43.7
11,NC(=O)CCSc1n[nH]c(-c2ccc3c(c2)CCC3)n1,-1.76
12,CCc1n[nH]c(C2CN(Cc3csc(COC)n3)CCO2)n1 (stereo not given),-7.86
13,COCCN1CC=C(c2cccc(OC)c2)CC1,1.42
14,CCCc1noc(CS(=O)(=O)c2cccc(OC)c2)n1,-5.69
15,CC(C)N(Cc1cccnc1)C(=O)CSc1ccc(C#N)cc1,-8.92
16,CS(=O)(=O)c1nccn1CCOc1ccc(F)cc1Cl,-2.15
17,COc1ccc2c(c1)CC(NCCCn1cc(C)cn1)CC2 (stereo not given),1.45
18,CC(NCCN1CCC(N(C)C)CC1)c1ccc(F)cc1N(C)C (stereo not given),15
19,CC1CCN(CC(O)CN2CCn3c(nnc3C3CC3)C2)CC1 (stereo not given),35.7
20,Cc1cnn(CCNCc2nc(-c3ccsc3)oc2C)c1,7.72
21,c1ccc2nc(NCC3(N4CCOCC4)CCSC3)cnc2c1 (stereo not given),28.5
22,c1nc(NCC2(N3CCOCC3)CCSC2)c2sccc2n1 (stereo not given),-4.54
23,Cc1cc(C)cc(C(C)NC(=O)c2ccc(CS(C)(=O)=O)o2)c1 (stereo not given),-3.42

row,SMILES,cytotoxicity at 70.5 h [%]
1,Cc1nc(S(=O)(=O)CCn2cccn2)n(C2CCCCC2)c1C,-4.93
2,CS(=O)(=O)CCOCCNc1cncc(Br)c1,-3.24
3,CCc1cnc(CNC(=O)N2CCCC(C(=O)NC)C2)s1 (stereo not given),12.5
4,CCC(O)CN1CCN(C(=O)Cc2c(C)nc(C)[nH]c2=O)CC1 (stereo not given),3.13
5,c1csc(-c2nnc(CSCCN3CCOCC3)o2)c1,12.2
6,COc1cc(CNc2nncs2)cc(OC)c1OC,12.6
7,COc1ccc(CNc2nncs2)cc1F,-2.65
8,Fc1cc(CNc2nncs2)ccc1Cl,-2.31
9,Cc1cccc(C(C)CNC(=O)N2CCC3(C2)OCCO3)c1 (stereo not given),12.8
10,COCCOCCNc1cncc(Br)c1,-0.213
11,CCCN(C)CC1CCN(c2ccc(Br)c(C)n2)C1 (stereo not given),4.09
12,OC1CCN(Cc2ccc(CNc3ncc(Cl)cc3F)cc2)CC1,14.7
13,Cc1nc(CNC(=O)N2CCCC(c3ncc[nH]3)C2)sc1C (stereo not given),-5.05
14,CCC(CNC(=O)N1CCOCC2(CCOCC2)C1)c1ccccc1 (stereo not given),-5.59
15,CC(C)CC(C)NCCCN1CCCN(C)CC1 (stereo not given),21.1
16,COCCCN(Cc1ccc(F)cc1Cl)C1CCS(=O)(=O)C1 (stereo not given),1.64
17,CC(CCc1ccccc1)N1CCC(C(=O)NCc2ccccc2)CC1 (stereo not given),0.455
18,O=S(=O)(Cc1ccc(F)cc1)NCCc1nnc2n1CCC2,-18.4
19,CC(CCc1ccccc1)N1CCC(C(=O)Nc2ccccn2)CC1 (stereo not given),22
20,CC(CCc1ccccc1)N1CCC(C(=O)Nc2cnccn2)CC1 (stereo not given),-19.2
21,CCOC(=O)CCNC(=O)c1cc(Cl)cc2cccnc12,-4.4
22,CCS(=O)(=O)N(C)CCCNC(=O)c1cc(Cl)cc2cccnc12,-11
23,O=C(c1cc(Cl)c[nH]1)N1CCN(CCc2ccccn2)CC1,-16

row,SMILES,cytotoxicity at 70.5 h [%]
1,COc1cc(I)c(Cl)cc1C(=O)N(C)CC(=O)NC(C)(C)C,-23.4
2,CCn1ncc(C(=O)NCc2ccc(C)c(OC)c2)c1C(F)(F)F,-21.3
3,O=C(Cn1cc(-n2cccc2)cn1)NCC(F)(F)F,-12.8
4,CN(Cc1nnc(-c2cccs2)o1)C(C(N)=O)c1cccc(F)c1 (stereo not given),-22
5,Cc1ccc(NC(=O)NCCc2cnn(C)c2)c(N(C)C)n1,0.893
6,Cc1ccc(NC(=O)NCCc2ccncc2C)c(N(C)C)n1,-16.2
7,Cc1cc(F)c(S(=O)(=O)Nc2ccn(CCC#N)n2)cc1F,-16.3
8,O=C(Cc1cccc(F)c1)NC1CCCc2cn[nH]c21 (stereo not given),-11.9
9,O=S1(=O)CCN2C(=N1)Oc1ccc(S(=O)(=O)N3CCCC3)cc12,-5.8
10,Cc1cccc(N2CCN(C(=O)CCCC(=O)N(C)C)C(C)C2)n1 (stereo not given),-18.7
11,CNC(=O)CN(C)C(=O)c1cc2ccccc2cc1OC,-17.8
12,N#Cc1ccccc1CN(CCO)Cc1ccsc1,-14.1
13,CC(C)OCCCNC(=O)NCc1cccc(-n2ccnc2)c1,-6.74
14,COCCN(Cc1cccc(O)c1)CC1CC1,29.9
15,CN(Cc1nnc(C2CC2)n1C)S(=O)(=O)c1ccccc1F,4.23
16,COC(=O)CC(C)(C)CC(=O)N1CCC(C(F)(F)F)CC1,1.71
17,CC(Cn1cccn1)NC(=O)NCCN1CCCCCC1=O (stereo not given),2.55
18,CNC(=O)C1CN(Cc2ccc(C#N)cc2F)c2ccccc2O1 (stereo not given),1
19,CC(C)(C)OC(=O)N1CSC[C@@H]1C(=O)NCc1cccc(C#N)c1,-0.236
20,CC(C)(C)OC(=O)N1CSC[C@@H]1C(=O)NCc1ccc(C#N)cc1,-3.01
21,CC(C)(C)OC(=O)N1CSC[C@@H]1C(=O)NCc1ccsc1,-1.79
22,CC(C)OCCC(=O)Nc1ncn(CC(=O)N2CCCCCC2)n1,-1.46
23,O=C(CCc1ccco1)Nc1ncn(CC(=O)N2CCCCCC2)n1,-2.03

row,SMILES,cytotoxicity at 70.5 h [%]
1,CC(C)(C)CNC(=O)CNC(=O)C1CC1,0.566
2,Cc1cc2c(cc1C)C(NC1CC1)CCCO2 (stereo not given),0.0987
3,NC(=O)N1CCCN(CCc2nc(-c3cccc(Cl)c3)no2)CC1,4.65
4,Cc1nsc(N2CCCN(c3ccc(C#N)cn3)CC2)n1,-0.603
5,C[S+]([O-])CCCNCc1cc(F)ccc1Br (stereo not given),0.821
6,CCC(C)(NCc1nnc(C(C)(C)C)o1)c1nccs1 (stereo not given),-0.157
7,COCCN1CC[C@]2(CN(C(=O)c3ccc[nH]3)C[C@H]2C)C1=O,-7.41
8,CCOCC1CN(CC2CCC2)Cc2nnn(CC3CC3)c21 (stereo not given),-0.482
9,O=C(NC1CC1)c1cc2c(s1)CCN2C(=O)C1CC1,-7.29
10,Cn1cc(-c2ncnc3c2CCN(C(=O)c2cscn2)CC3)cn1,22.4
11,CCS(=O)(=O)N1Cc2nccn2CC(Cn2cccn2)C1 (stereo not given),1.18
12,O=C(Nc1ccccc1)N1CCc2nc(C(=O)N3CCCC3)sc2CC1,-2.49
13,NC(=O)c1nc2c(s1)CCN(C(=O)Nc1cccc(Cl)c1)CC2,7.06
14,OCc1nnc2n1CCN(c1cnccn1)C2,-1.17
15,CN1Cc2ccccc2CC2(CCN(Cc3nccn3C)CC2)C1=O,-3.31
16,CCC1=NC2(CCC(C(=O)Nc3ccc(C)nc3)CC2)C(=O)N1C (stereo not given),-2.35
17,CCC1=NC2(CCC(C(=O)Nc3ccc(F)cc3)CC2)C(=O)N1C (stereo not given),-5.04
18,CC(C)n1nc(CN2CCCC2=O)c2c1CN(C(=O)c1ccno1)C2,-1.71
19,Cc1ccc(CN2CCO[C@@H]3[C@@H](OCc4cccnc4)CC[C@@H]32)o1,-4.63
20,O=C(c1ccccc1)N1CCC2(CC1)CNc1c(F)cccc12,-7.65
21,CCS(=O)(=O)N1CCc2c(CN3CCOCC3)cncc2C1,-4.84
22,c1csc(CN2CCC3(CCOCC3COCC3CC3)CC2)n1 (stereo not given),-3.9
23,Cc1ccc(CN2CCC3(CC2)COCCN3S(C)(=O)=O)o1,-4.45

row,SMILES,cytotoxicity at 70.5 h [%]
1,Fc1cnc(N2C[C@@H]3C[C@@H](c4nc(C5CC5)cs4)O[C@@H]3C2)nc1,-1.67
2,O=S(=O)(C1CC1)N1CCCn2cnc(COc3cccnc3)c2C1,-2.62
3,Cn1ccnc1CN1CCC2(CC1)Cc1ccccc1CNC2=O,-3.2
4,CC(C)NC(=O)N1CCc2ncnc(-c3ccncc3)c2CC1,-3.38
5,Cc1oncc1C(=O)N1CC[C@@H]2[C@@H]1CC(=O)N2Cc1cccnc1,-5.14
6,CC(C)N(C)Cc1nnc2n1CCCN(c1ncccn1)C2,-2.54
7,Cc1ccc(N2CC[C@H]3O[C@@H](C(=O)N4CCCCO4)CC[C@H]32)nn1,-4.7
8,Cc1ccc(N2CC[C@H]3O[C@@H](C(=O)N4CCCO4)CC[C@H]32)nn1,0.0406
9,CN(C)C(=O)N1CCO[C@@H]2CC(COCc3cccnc3)C[C@H]21 (stereo not given in full),-1.44
10,Cn1cccc1C(=O)N1CCC2(CCN2c2ncccn2)C1 (stereo not given),-3.82
11,O=S(=O)(C1CC1)N1CCC2(CCCN(c3ncccn3)C2)C1 (stereo not given),18
12,CN(C)[C@@H]1CN(C(=O)Cc2ccsc2)[C@@H]2CCCO[C@H]12,16.1
13,CN(C)C(=O)CN1CCOCC2(C1)CN(c1ncccn1)CCO2 (stereo not given),16.4
14,CN(C)[C@@H]1CN(C(=O)Cc2ccc(F)cc2)[C@@H]2CCCO[C@H]12,18.3
15,Cc1noc(C)c1C(=O)N1CCOC2(COCCN(C(C)C)C2)C1 (stereo not given),-1.02
16,COCCN1CCc2ncnc(OC(C)C)c2CC1,-9.41
17,O=C(Cc1ccsc1)N1Cc2nc(CN3CCCCC3)oc2C1,-4.42
18,c1cnc(N2CCO[C@H]3[C@H](OCC4CCOCC4)CC[C@@H]32)nc1,-10.9
19,Cc1nocc1C(=O)N1CCOC2(COCCN(C(C)C)C2)C1 (stereo not given),-5.11
20,CO[C@@H]1CCN(Cc2c(C)noc2C)[C@@H]2CN(Cc3ccco3)C[C@@H]21,-2.94
21,COCC1CN(c2ccc(C)nn2)Cc2cnn(CC3CCOCC3)c21 (stereo not given),-6.71
22,COCC1CN(c2ncc(F)cn2)Cc2cnn(C)c21 (stereo not given),-4.56
23,CO[C@@H]1CCN(Cc2c(C)noc2C)[C@@H]2CN(Cc3cccnc3)C[C@@H]21,-5.86
